Consider one molecule from US4977179A, “Proline derivatives” (Otsuka Pharmaceutical Factory, Inc., priority 1986, dated 1990).

The structures appear in SMILES notation.

For this test, the target named is T1, angiotensin-converting enzyme (ACE) (Rattus norvegicus, UniProt P47820).
T1 construct: enzyme solution prepared from rat lung; from tissue; host or cells: rat lung
T1 sequence (P47820 36-1313): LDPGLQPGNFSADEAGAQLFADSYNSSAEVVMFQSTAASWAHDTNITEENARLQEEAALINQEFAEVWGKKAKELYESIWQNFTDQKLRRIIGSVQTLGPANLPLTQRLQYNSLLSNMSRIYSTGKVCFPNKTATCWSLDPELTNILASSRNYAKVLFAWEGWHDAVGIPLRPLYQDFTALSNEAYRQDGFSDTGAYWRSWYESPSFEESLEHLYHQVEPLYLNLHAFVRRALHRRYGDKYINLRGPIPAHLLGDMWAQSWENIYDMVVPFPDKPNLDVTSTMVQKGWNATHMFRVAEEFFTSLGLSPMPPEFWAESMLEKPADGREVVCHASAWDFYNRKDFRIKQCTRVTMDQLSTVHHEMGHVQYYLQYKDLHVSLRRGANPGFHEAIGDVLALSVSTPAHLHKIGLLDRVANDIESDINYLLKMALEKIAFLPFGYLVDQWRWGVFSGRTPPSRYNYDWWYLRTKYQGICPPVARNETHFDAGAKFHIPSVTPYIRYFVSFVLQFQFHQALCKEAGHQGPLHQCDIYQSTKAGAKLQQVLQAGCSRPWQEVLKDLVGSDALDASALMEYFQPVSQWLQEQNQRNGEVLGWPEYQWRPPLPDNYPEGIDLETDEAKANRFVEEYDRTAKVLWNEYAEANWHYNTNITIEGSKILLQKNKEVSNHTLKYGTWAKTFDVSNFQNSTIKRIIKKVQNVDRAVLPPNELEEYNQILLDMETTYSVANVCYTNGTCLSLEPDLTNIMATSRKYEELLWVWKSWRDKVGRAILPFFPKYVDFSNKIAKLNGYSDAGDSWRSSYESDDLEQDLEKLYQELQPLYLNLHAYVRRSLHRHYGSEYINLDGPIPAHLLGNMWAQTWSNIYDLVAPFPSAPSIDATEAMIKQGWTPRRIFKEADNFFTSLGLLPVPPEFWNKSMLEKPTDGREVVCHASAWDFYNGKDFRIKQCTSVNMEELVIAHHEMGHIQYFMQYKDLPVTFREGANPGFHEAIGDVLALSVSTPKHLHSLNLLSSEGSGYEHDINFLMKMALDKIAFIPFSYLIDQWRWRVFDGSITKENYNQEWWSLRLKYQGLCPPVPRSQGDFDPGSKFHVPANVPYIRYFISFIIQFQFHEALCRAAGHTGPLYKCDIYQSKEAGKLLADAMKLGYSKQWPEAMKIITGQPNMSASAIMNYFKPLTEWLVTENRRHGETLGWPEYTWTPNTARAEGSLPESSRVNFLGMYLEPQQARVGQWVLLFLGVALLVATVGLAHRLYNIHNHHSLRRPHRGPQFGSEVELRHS
Put plainly: Inhibitory activity against angiotensin-converting enzyme (ACE). The settings on record: enzyme solution from rat lung; substrate hippuryl-histidyl-leucine; phosphate buffer pH 8.3, 37° C., HPLC of hippuric acid; samples all used in the form of dicarboxylic acid. It counts as biochemical. On the procedure:
Inhibitory activity against angiotensin-converting enzyme (ACE)
A […] of the compound of the present invention was dissolved in 50 ml of a phosphate buffer (pH 8.3). The solution was diluted with the same phosphate buffer as above to prepare a sample solution.
A 100 μl quantity of an enzyme solution prepared from rat lung was mixed with 100 μl of the sample solution. The mixture was gently shaken at 37° C. for 10 minutes. To the mixture was added 100 μl of a solution containing 6.99 mM of hippuryl-histidyl-leucine (product of Peptide Institute, Inc., Japan) as a substrate. The resulting mixture was incubated at 37° C. for 10 minutes. The reaction was terminated by addition of 100 μl of a 10% metaphosphoric acid to the reaction mixture and the mixture was neutralized with 1N-sodium hydroxide. A 10 μl quantity of the resulting mixture was subjected to high performance liquid chromatography (HPLC) for analysis. The area valve (S) of the hippuric acid formed by the reaction was measured. A control area valve (R) was measured by repeating the same procedure as above except that 100 μl of phosphate buffer (pH 8.3) was used in place of the sample solution.
A percent inhibition was calculated by the following equation: [formula] […]

Consider `CCCCOCCSC[C@H](NC(C)C(=O)N1CCC[C@H]1C(=O)O)C(=O)O` (single isomer, unassigned) [Example 22], for which the IC50 (as a rule, the concentration that inhibits the measured activity by half) stood at 0.114 nM.
